Patent publication US20120149678A1, “Organonitro Compounds for Use in Treating Non-Hodgkin's Lymphoma and Leukemia, and Methods Relating Thereto” (priority 2010, published 2012)

Test system: B-cell lymphoma Daudi cells
Assay: ABDNAZ-induced apoptosis of B-cell lymphoma Daudi cells (sub-G1 cells, propidium iodide staining, flow cytometry)
Type: cell-based
Description: B-cell lymphoma Daudi cells were grown and maintained in Dulbecco's modified essential medium (DMEM) (INVITROGEN™, Grand Island, N.Y.) supplemented with 10% fetal calf serum, 100 units/mL penicillin, and 100 μg/mL streptomycin in a 37° C. humidified incubator with a mixture of 95% air and 5% CO2. Experiments were performed on exponentially growing cells with a cell population doubling time of approximately 20-36 hours.
After exposing the B-cell lymphoma Daudi cells to ABDNAZ, apoptotic cell death was quantitated by measuring the number of subdiploid (sub-G1) cells stained with propidium iodide (PI), according to a procedure described previously by Ning and coworkers. Ning, S., and Knox, S. J. in Int. J. Radiat. Oncol. Biol. Phys. (2004) 60:197-203. Briefly, ABDNAZ-treated and untreated control cells were collected and fixed with cold 100% ethanol. Cells were pelleted, treated with 100 μg/mL of RNase A in PBS-EDTA solution for 30 min and stained with 50 μg/mL of PI for 10 min at room temperature. The DNA content was analyzed with a FACScan flowcytometer (Becton Dickison, San Jose, Calif.). The percentage of cells in the sub-G1 phase was calculated as described previously by Ning and coworkers.
To examine whether ABDNAZ-induced apoptotic cell death was due to the generation of reactive oxygen species (ROS), Daudi cells were treated with a glutathione (GSH) precursor, N-acetylcysteine (NAC), and a GSH synthesis inhibitor, buthionine-(S,R)-sulfoxime (BSO), and the level of apoptosis was measured.

SMILES: O=C(CBr)N1CC([N+](=O)[O-])([N+](=O)[O-])C1 [ABDNAZ, 1-bromoacetyl-3,3-dinitroazetidine]
- Daudi cell apoptosis (2 mM ABDNAZ, measured at 24 hours (FIG. 1)): 30%
- Daudi cell apoptosis (4 mM ABDNAZ, measured at 72 hours after exposure (FIG. 1)): 45%
- ABDNAZ-induced apoptosis (Daudi cells pre-treated with N-acetylcysteine (GSH precursor) (FIG. 2)): 5%
- ABDNAZ-induced apoptosis (Daudi cells pre-treated with buthionine-(S,R)-sulfoxime (GSH synthesis inhibitor) (FIG. 2)): 25%
- ABDNAZ-induced apoptosis (Daudi cells, ABDNAZ without pre-treatment (FIG. 2)): 11%
